Data reported in ChEMBL document CHEMBL1151757, “Synthesis, radiosynthesis, and biological evaluation of fluorine-18-labeled 2beta-carbo(fluoroalkoxy)-3beta-(3'-((Z)-2-haloethenyl)phenyl)nortropanes: candidate radioligands for in vivo imaging of the serotonin transporter with positron emission tomography” (J Med Chem, 2008).

Tested on: not listed separately
Assay: Ratio of drug uptake in putamen to cerebellum in anesthetized cynomolgus monkey after 45 mins postinjection
Format: ADME, organism-based, Macaca fascicularis
Details: in vivo, 0.75 h

Compound | Ratio
O=C(OCC[18F])C1C2CCC(CC1c1ccc(/C=C\I)cc1)N2 (stereo not drawn) | 1.4

Tested on: not listed separately
Assay: Ratio of drug uptake in putamen to cerebellum in anesthetized cynomolgus monkey after 155 mins postinjection
Format: ADME, organism-based, Macaca fascicularis
Details: in vivo

Compound | Ratio
O=C(OCC[18F])C1C2CCC(CC1c1ccc(/C=C\I)cc1)N2 (stereo not drawn) | 2.8

Tested on: Medulla
Assay: Drug uptake in anesthetized cynomolgus monkey brain medulla after 225 mins postinjection
Format: ADME, organism-based, Macaca fascicularis
Details: in vivo, 3.75 h

Compound | Drug uptake
O=C(OCC[18F])C1C2CCC(CC1c1ccc(/C=C\I)cc1)N2 (stereo not drawn) | 3.24

Tested on: Medulla
Assay: Drug uptake in anesthetized cynomolgus monkey brain medulla after 235 mins postinjection
Format: ADME, organism-based, Macaca fascicularis
Details: in vivo

Compound | Drug uptake
O=C(OCC[18F])C1C2CCC(CC1c1ccc(/C=C\I)cc1)N2 (stereo not drawn) | 3.3

Tested on: Medulla
Assay: Drug uptake in anesthetized cynomolgus monkey brain medulla after 115 mins postinjection
Format: ADME, organism-based, Macaca fascicularis
Details: in vivo

Compound | Drug uptake
O=C(OCC[18F])C1C2CCC(CC1c1ccc(/C=C\I)cc1)N2 (stereo not drawn) | 3.8

Tested on: not listed separately
Assay: Ratio of drug uptake in putamen to cerebellum in anesthetized cynomolgus monkey after 215 mins postinjection
Format: ADME, organism-based, Macaca fascicularis
Details: in vivo

Compound | Ratio
O=C(OCC[18F])C1C2CCC(CC1c1ccc(/C=C\I)cc1)N2 (stereo not drawn) | 3.3

Tested on: Caudate
Assay: Drug uptake in anesthetized cynomolgus monkey brain caudate after 4.5 mins postinjection
Format: ADME, organism-based, Macaca fascicularis, Caudate nucleus
Details: in vivo, 0.075 h

Compound | Drug uptake
O=C(OCC[18F])C1C2CCC(CC1c1ccc(/C=C\I)cc1)N2 (stereo not drawn) | 0.78

Tested on: Caudate
Assay: Drug uptake in anesthetized cynomolgus monkey brain caudate after 22.5 mins postinjection
Format: ADME, organism-based, Macaca fascicularis, Caudate nucleus
Details: in vivo, 0.375 h

Compound | Drug uptake
O=C(OCC[18F])C1C2CCC(CC1c1ccc(/C=C\I)cc1)N2 (stereo not drawn) | 2.05

Tested on: Caudate
Assay: Drug uptake in anesthetized cynomolgus monkey brain caudate after 27.5 mins postinjection
Format: ADME, organism-based, Macaca fascicularis, Caudate nucleus
Details: in vivo

Compound | Drug uptake
O=C(OCC[18F])C1C2CCC(CC1c1ccc(/C=C\I)cc1)N2 (stereo not drawn) | 2.17

Tested on: Caudate
Assay: Drug uptake in anesthetized cynomolgus monkey brain caudate after 115 mins postinjection
Format: ADME, organism-based, Macaca fascicularis, Caudate nucleus
Details: in vivo

Compound | Drug uptake
O=C(OCC[18F])C1C2CCC(CC1c1ccc(/C=C\I)cc1)N2 (stereo not drawn) | 3.11

Tested on: Caudate
Assay: Drug uptake in anesthetized cynomolgus monkey brain caudate after 215 mins postinjection
Format: ADME, organism-based, Macaca fascicularis, Caudate nucleus
Details: in vivo

Compound | Drug uptake
O=C(OCC[18F])C1C2CCC(CC1c1ccc(/C=C\I)cc1)N2 (stereo not drawn) | 2.81

Tested on: Thalamus
Assay: Drug uptake in anesthetized cynomolgus monkey brain thalamus after 2.5 mins postinjection
Format: ADME, organism-based, Macaca fascicularis
Set-up: unit not given here
Details: in vivo

Compound | Drug uptake
O=C(OCC[18F])C1C2CCC(CC1c1ccc(/C=C\I)cc1)N2 (stereo not drawn) | 0.4

Tested on: Putamen
Assay: Drug uptake in anesthetized cynomolgus monkey brain putamen after 12.5 mins postinjection
Format: ADME, organism-based, Macaca fascicularis
Set-up: unit not given here
Details: in vivo

Compound | Drug uptake
O=C(OCC[18F])C1C2CCC(CC1c1ccc(/C=C\I)cc1)N2 (stereo not drawn) | 2.59

Tested on: Putamen
Assay: Drug uptake in anesthetized cynomolgus monkey brain putamen after 18.5 mins postinjection
Format: ADME, organism-based, Macaca fascicularis
Set-up: unit not given here
Details: in vivo

Compound | Drug uptake
O=C(OCC[18F])C1C2CCC(CC1c1ccc(/C=C\I)cc1)N2 (stereo not drawn) | 2.87

Tested on: Putamen
Assay: Drug uptake in anesthetized cynomolgus monkey brain putamen after 95 mins postinjection
Format: ADME, organism-based, Macaca fascicularis
Set-up: unit not given here
Details: in vivo

Compound | Drug uptake
O=C(OCC[18F])C1C2CCC(CC1c1ccc(/C=C\I)cc1)N2 (stereo not drawn) | 4.36

Tested on: Thalamus
Assay: Drug uptake in anesthetized cynomolgus monkey brain thalamus after 75 mins postinjection
Format: ADME, organism-based, Macaca fascicularis
Set-up: unit not given here
Details: in vivo, 1.25 h

Compound | Drug uptake
O=C(OCC[18F])C1C2CCC(CC1c1ccc(/C=C\I)cc1)N2 (stereo not drawn) | 4.02

Tested on: Thalamus
Assay: Drug uptake in anesthetized cynomolgus monkey brain thalamus after 155 mins postinjection
Format: ADME, organism-based, Macaca fascicularis
Set-up: unit not given here
Details: in vivo

Compound | Drug uptake
O=C(OCC[18F])C1C2CCC(CC1c1ccc(/C=C\I)cc1)N2 (stereo not drawn) | 3.97

Tested on: Midbrain
Assay: Drug uptake in anesthetized cynomolgus monkey brain midbrain after 6.5 mins postinjection
Format: ADME, organism-based, Macaca fascicularis
Set-up: unit not given here
Details: in vivo

Compound | Drug uptake
O=C(OCC[18F])C1C2CCC(CC1c1ccc(/C=C\I)cc1)N2 (stereo not drawn) | 1.74

Tested on: Midbrain
Assay: Drug uptake in anesthetized cynomolgus monkey brain midbrain after 12.5 mins postinjection
Format: ADME, organism-based, Macaca fascicularis
Set-up: unit not given here
Details: in vivo

Compound | Drug uptake
O=C(OCC[18F])C1C2CCC(CC1c1ccc(/C=C\I)cc1)N2 (stereo not drawn) | 2.38

Tested on: Midbrain
Assay: Drug uptake in anesthetized cynomolgus monkey brain midbrain after 18.5 mins postinjection
Format: ADME, organism-based, Macaca fascicularis
Set-up: unit not given here
Details: in vivo

Compound | Drug uptake
O=C(OCC[18F])C1C2CCC(CC1c1ccc(/C=C\I)cc1)N2 (stereo not drawn) | 2.78

Tested on: Midbrain
Assay: Drug uptake in anesthetized cynomolgus monkey brain midbrain after 35 mins postinjection
Format: ADME, organism-based, Macaca fascicularis
Set-up: unit not given here
Details: in vivo

Compound | Drug uptake
O=C(OCC[18F])C1C2CCC(CC1c1ccc(/C=C\I)cc1)N2 (stereo not drawn) | 3.51

Tested on: Midbrain
Assay: Drug uptake in anesthetized cynomolgus monkey brain midbrain after 45 mins postinjection
Format: ADME, organism-based, Macaca fascicularis
Set-up: unit not given here
Details: in vivo, 0.75 h

Compound | Drug uptake
O=C(OCC[18F])C1C2CCC(CC1c1ccc(/C=C\I)cc1)N2 (stereo not drawn) | 3.76

Tested on: Midbrain
Assay: Drug uptake in anesthetized cynomolgus monkey brain midbrain after 85 mins postinjection
Format: ADME, organism-based, Macaca fascicularis
Set-up: unit not given here
Details: in vivo

Compound | Drug uptake
O=C(OCC[18F])C1C2CCC(CC1c1ccc(/C=C\I)cc1)N2 (stereo not drawn) | 4.42
